Measured values from publication PMC11407372, “New imidazolidindionedioximes and their Pt(II) complexes: synthesis and investigation of their antitumoral activities on breast cancer cells” (Turkish Journal of Chemistry, 2024).

What was measured:
[1] = tested on: CCD-1079Sk healthy fibroblast cell line; assay: MTT cytotoxicity assay; format: cell-based; conditions: 24 h, mean ± standard deviation
Protocol: (§1) CCD-1079Sk healthy fibroblast cell line, MCF-7, and MDA-MB-231 breast cancer cell lines were used in this study. The cells were grown in DMEM/F12 medium containing 10% fetal bovine serum (FBS) and 100 U/mL penicillin/streptomycin at 37 °C in a humidified incubator with 5% CO2. After bringing 80% confluency, the cells were detached using a trypsin solution. For further experiments, cells were resuspended in the growth medium after collection and centrifugation.
(§2) To determine cytotoxicity, the MTT assay was performed using L1aPt-m, L1bPt-m, L1cPt-m, L1aPt-b, L1bPt-b, L1cPt-b, cisPt, and bicalutamide (bical) samples at 10 different concentrations ranging from 100 μM to 0.19 μM (100, 50, 25, 12.5, 6.25, 3.12, 1.56, 0.78, 0.39, and 0.19 μM). The samples were dissolved in DMSO and diluted with the medium. Initial DMSO concentration was kept below 1% to avoid toxicity from the solvent. Briefly, the cells were seeded to 96-well plates at 5 × 10^3 cells/well in a volume of 200 μL, and cells were inoculated overnight. After that, old medium was removed, 100 μL of fresh medium and 100 μL of sample were added to the wells. The cells were incubated with the samples for 24 h. At the end of incubation with the samples, 30 μL of 3-(4,5-dimethylthiazol-2-yl)-2,5-diphenyltetrazolium bromide (MTT) solution was added. After 3 h the medium was removed and 100 μL of DMSO was added to dissolve the formazan crystals. Then the absorbance values were recorded at 540 nm using an ELISA microplate reader (Synergy H1, BioTek). All the experiments were carried out in triplicates, and the results were presented as a mean ± standard deviation. The IC50 values of samples were calculated using a percentage of relative cell viability via GraphPad Prism 5. The viability percentages of cells were calculated using the following formula:
(§3) %relative cell viability=(Abssample/Abscontrol)×100.

[2] = tested on: MCF-7 human breast cancer cell line; assay: MTT cytotoxicity assay; format: cell-based; conditions: mean ± standard deviation
Protocol: as §1, §2, §3

[3] = tested on: MDA-MB-231 human breast cancer cell line; assay: MTT cytotoxicity assay; format: cell-based; conditions: mean ± standard deviation
Protocol: as §1, §2, §3

CCD-1079Sk cells = assay: Apoptosis assay (Annexin V/7-AAD, flow cytometry); format: cell-based; conditions: sample at IC50 concentration, 24 h
Protocol: (§4) FITC-Annexin V/7-AAD kit was used for the apoptosis experiment. Briefly, the cells were seeded into 12-well plates at 2 × 10^5 cells/well in 1 mL volume and cells were inoculated overnight. After that, 500 μL of fresh medium and 500 μL of sample at the concentration of IC50 were added to the wells. The cells were incubated with the samples for 24 h, then detached using 0.5 mL of trypsin solution, cells were collected and centrifuged at 3000 g for 3 min. The cells were washed with 200 μL of cell staining buffer, then dispersed in 100 μL of binding buffer. Following this, 5 μL of FITC-Annexin V and 10 μL of 7-AAD were added, and the mixture was incubated in the dark for 30 min. The samples were then analyzed by flow cytometry.
(§5) The Annexin V conjugated Alexa Fluor 488/7-AAD binding assay is based on the difference in fluorescence intensity between apoptotic and nonapoptotic cells stained with the fluorescent Annexin V/7-AAD, which is measured by flow cytometry. Therefore, an apoptosis assay was performed to determine the rate of live, apoptotic, and necrotic cells (Table 2, Figure S43). It is seen that compounds induce early and late apoptosis in MDA-MB-231 cells.

MCF-7 cells [4] = assay: Apoptosis assay (Annexin V/7-AAD, flow cytometry); format: cell-based, human; conditions: sample at IC50 concentration, 24 h
Protocol: as §4
as §5, with “It is seen that compounds induce early and late apoptosis in MDA-MB-231 cells.” left out

MDA-MB-231 cells [5] = assay: Apoptosis assay (Annexin V/7-AAD, flow cytometry); format: cell-based, human; conditions: sample at IC50 concentration, 24 h
Protocol: as §4, §5

MCF-7 cells [6] = assay: Cell cycle assay (PI, flow cytometry); format: cell-based, human; conditions: sample at IC50 concentration, 24 h; 59.5% in control cells
Protocol: (§6) The cell cycle kit was used for the cell cycle experiment. Briefly, the cells were seeded into 12-well plates in a volume of 1 mL at 2 × 10^5 cells/well, and cells were inoculated overnight. After that, 500 μL of fresh medium and 500 μL of the sample at the concentration of IC50 were added to the wells. The cells were incubated with the samples for 24 h, then detached using 0.5 mL of trypsin solution, cells were collected and centrifuged at 3000 g for 3 min. The collecting cells were washed with 1 mL of PBS and fixed with 1 mL of 70% cold ethanol at −20 °C for 24 h. After that, 200 μL of staining solution containing propidium iodide (PI) and RNAse reagents were added to the cells, and the cells were incubated for 30 min in the dark. Cell cycle profiles of synthesized compounds were analyzed using a flow cytometer (BD Accuri C6). The data were analyzed through BD software. Each assay was investigated in triplicate.

MDA-MB-231 cells [7] = assay: Cell cycle assay (PI, flow cytometry); format: cell-based, human; conditions: for MDA-MB-231 cell population in the G1-phase: sample at IC50 concentration, 24 h, 24.5% in control cells; for effect on cell cycle: summary in conclusion, MDA-MB-231 and/or MCF-7
Protocol: as §6

Structure (SMILES)	IC50 ([1]; Fibroblast)	IC50 ([2]; Homo sapiens, MCF7, 24 h)	IC50 ([3]; Homo sapiens, MDA-MB-231, 24 h)	cell % Apoptotic, CCD-1079Sk (CCD-1079Sk cells)	cell % Apoptotic, MCF-7 (MCF-7 cells [4])	cell % Necrotic, MCF-7 (MCF-7 cells [4])	cell % Apoptotic, MDA-MB-231 (MDA-MB-231 cells [5])	cell % Necrotic, MDA-MB-231 (MDA-MB-231 cells [5])	IC50 [1]	IC50 ([2]; 24 h)	IC50 ([3]; 24 h)	cell % Necrotic, CCD-1079Sk (CCD-1079Sk cells)	MCF-7 cell population in the G1-phase (MCF-7 cells [6])	MDA-MB-231 cell population in the G1-phase (MDA-MB-231 cells [7])	effect on cell cycle (MDA-MB-231 cells [7])	apoptosis induction in MCF-7 cells (MCF-7 cells [4])
CC(O)(CS(=O)(=O)c1ccc(F)cc1)C(=O)Nc1ccc(C#N)c(C(F)(F)F)c1 (centres unmarked) [Bical, bicalutamide, reference compound]	9.16 ± 3.18 µM	3.78 ± 1.85 µM	8.34 ± 6.39 µM	5.10 ± 0.21%	2.05 ± 0.03%	6.35 ± 1.20%	6.70 ± 0.28%	1.95 ± 0.21%	–	–	–	–	–	–	–	–
N.N.[Cl][Pt][Cl] [CisPt, cis-diamminedichloroplatinum(II), reference compound]	–	–	–	5.00 ± 0.07%	3.45 ± 0.03%	1.10 ± 0.14%	14.95 ± 0.74%	1.55 ± 0.21%	27.9 ± 7.24 µM	3.98 ± 1.44 µM	9.16 ± 7.74 µM	3.90 ± 0.14%	–	–	–	–
[O-]N=C1C(=NO)N(c2ccccc2)CN1c1ccccc1.[O-]N=C1C(=NO)N(c2ccccc2)CN1c1ccccc1.[Pt+2] [L 1a Pt-b]	–	–	–	3.65 ± 0.03%	4.65 ± 0.81%	0.95 ± 0.35%	7.65 ± 0.25%	1.15 ± 0.07%	47.8 ± 6.42 µM	5.58 ± 2.29 µM	5.26 ± 5.53 µM	4.15 ± 0.21%	64.4%	49.6%	regulate the cell cycle and increase the G1 population	–
O[N+]1=C2C(=[N+](O)[Pt-2]1([Cl])[Cl])N(c1ccccc1)CN2c1ccccc1 [L 1a Pt-m]	–	–	–	2.65 ± 0.11%	–	5.45 ± 1.06%	9.35 ± 0.46%	0.65 ± 0.21%	59.5 ± 5.34 µM	8.97 ± 5.28 µM	9.63 ± 7.71 µM	–	–	36.1%	regulate the cell cycle and increase the G1 population	induces more cancerous cells to undergo apoptosis
[O-]N=C1C(=NO)N(c2ccc(F)cc2)CN1c1ccc(F)cc1.[O-]N=C1C(=NO)N(c2ccc(F)cc2)CN1c1ccc(F)cc1.[Pt+2] [L 1b Pt-b]	–	–	–	1.90 ± 0.07%	2.95 ± 0.11%	2.20 ± 0.14%	7.45 ± 0.39%	2.65 ± 0.07%	67.9 ± 5.11 µM	9.57 ± 5.41 µM	9.73 ± 7.28 µM	1.25 ± 0.07%	–	–	–	–
O[N+]1=C2C(=[N+](O)[Pt-2]1([Cl])[Cl])N(c1ccc(F)cc1)CN2c1ccc(F)cc1 [L 1b Pt-m]	–	–	–	–	3.65 ± 0.18%	0.95 ± 0.21%	5.95 ± 0.25%	0.65 ± 0.07%	54.6 ± 6.25 µM	6.91 ± 3.16 µM	8.64 ± 7.71 µM	–	–	–	–	–
[O-]N=C1C(=NO)N(c2ccc(F)cc2F)CN1c1ccc(F)cc1F.[O-]N=C1C(=NO)N(c2ccc(F)cc2F)CN1c1ccc(F)cc1F.[Pt+2] [L 1c Pt-b]	–	–	–	1.85 ± 0.03%	2.05 ± 0.03%	5.35 ± 1.34%	8.00 ± 0.21%	3.20 ± 0.14%	73.9 ± 4.96 µM	5.9 ± 2.04 µM	6.94 ± 5.57 µM	1.80 ± 0.14%	64.1%	–	regulate the cell cycle and increase the G1 population	induces more cancerous cells to undergo apoptosis
O[N+]1=C2C(=[N+](O)[Pt-2]1([Cl])[Cl])N(c1ccc(F)cc1F)CN2c1ccc(F)cc1F [L 1c Pt-m]	–	–	–	3.45 ± 0.03%	5.95 ± 0.46%	3.40 ± 0.71%	6.20 ± 0.14%	0.55 ± 0.07%	45.2 ± 5.55 µM	5.56 ± 2.39 µM	25 ± 6.61 µM	3.25 ± 0.07%	–	–	–	induces more cancerous cells to undergo apoptosis
